Measured values: patent EP0168709A1, “Process for preparing chlorinated phosphorylmethylcarbonyl derivatives, and intermediates for their preparation” (BAYER AG, priority 1984, dated 1986)

Key:
Type in all cases: in vivo
Baum-wolle = assay: Pre-emergence test, greenhouse; conditions: 0,5 kg/ha, rated after three weeks vs untreated control, 0 % = no effect, 100 % = total destruction
Text: (§1) Pre-emergence-Test - Gewächshaus
(§2) Lösungsmittel: 5 Gewichtsteile Aceton
(§3) Emulgator: 1 Gewichtsteil Alkylarylpolyglykolether
(§4) Zur Herstellung einer zweckmäßigen Wirkstoffzubereitung vermischt man 1 Gewichtsteil Wirkstoff mit der angegebenen Menge Lösungsmittel, gibt die angegebene Menge Emulgator zu und verdünnt das Konzentrat mit Wasser auf die gewünschte Konzentration.
(§5) Samen der Testpflanzen werden in normalen Boden ausgesät und nach 24 Stunden mit der Wirkstoffzubereitung begossen. Dabei hält man die Wassermenge pro Flächeneinheit zweckmäßigerweise konstant. Die Wirkstoffkonzentration in der Zubereitung spielt keine Rolle, entscheidend ist nur die Aufwandmenge des Wirkstoffs pro Flächeneinheit. Nach drei Wochen wird der Schädigungsgrad der Pflanzen bonitiert in % Schädigung im Vergleich zur Entwicklung der unbehandelten Kontrolle. Es bedeuten: • O % = keine Wirkung (wie unbehandelte Kontrolle) 100 % = totale Vernichtung

Soja-bohnen = assay: Pre-emergence test, greenhouse; conditions: 0,5 kg/ha, rated after three weeks vs untreated control, 0 % = no effect, 100 % = total destruction
Text: as §1, §2, §3, §4, §5

Sorghum halepense = assay: Pre-emergence test, greenhouse; conditions: 0,5 kg/ha, rated after three weeks vs untreated control, 0 % = no effect, 100 % = total destruction
Text: as §1, §2, §3, §4, §5

Testpflanzen = assay: Pre-emergence test, greenhouse (overall statement); conditions: result in words
Text: as §1, §2, §3, §4, §5

SMILES: CC(C)CC(=O)C(Cl)(Cl)P(=O)(OC(C)C)OC(C)C [Beispiel 1, O,O-Di-i-propyl-(1,1-dichlor-4-methyl-2-oxo-pentan)-phosphonsäureester]
- Schädigungsgrad der Pflanzen (% Schädigung), Baum-wolle (Baum-wolle): 0%
- Schädigungsgrad der Pflanzen (% Schädigung), Soja-bohnen (Soja-bohnen): 0%
- Schädigungsgrad der Pflanzen (% Schädigung), Sorghum halepense (Sorghum halepense): 100%
- Wirksamkeit (Testpflanzen): ausgezeichnete Wirksamkeit
